Test results as given in article PMC11840788, “3,3′-Diindolylmethane (DIM): A Molecular Scaffold for Inhibition of WWP1 and WWP2, Members of the NEDD4 Family HECT E3 Ligases” (ACS Omega, 2025).

How the values were obtained:
[1] = target: WWP1 (Homo sapiens, UniProt Q9H0M0); assay: STD NMR binding, WWP1; conditions: 500 μM ligand, 20 μM protein
Method: (§1) Given the similarities between WWP1 and WWP2 HECT domains, we speculated that the relatively low sensitivity of DSF may not be able to detect weak WWP2-I3C interactions and therefore opted to investigate further using STD NMR. STD NMR is a versatile ligand-based NMR approach, relying on selective saturation of the protein. This saturation is transferred to the ligand when and if the ligand binds, causing a reduction of the signal intensities. The STD intensities are calculated as the difference of the reference spectra (where selective saturation is off) minus the irradiated spectra, and they are proportional to the vicinity of the protein surface. […]
(§2) An Amicon centrifuge filter unit with a 10 kDa MW cutoff was used to exchange the protein in 25 mM d19-2,2-bis(hydroxymethyl)-2,2′,2″-nitrilotriethanol, 100 mM NaCl and 1.0 mM DTT buffer pH* 8.9 (uncorrected for the deuterium isotope effect on the pH glass electrode) in D2O. […] All the NMR experiments were performed on a Bruker Avance 800.23 MHz at 278 K. Binding epitope mappings were obtained by determining the initial slopes (STD0) calculated by performing a least-squares fitting of the following monoexponential curve: [drawing 1] where STD(tsat) is the STD intensity for a saturation time, tsat, STDmax is the maximum STD intensity and ksat is the rate constant for saturation transfer. […]

[2] = target: T1, WWP2 (Homo sapiens, UniProt O00308); assay: STD NMR binding, WWP2; conditions: 500 μM ligand, 20 μM protein
T1 construct: made in house; host or cells: E. coli
T1 sequence (O00308 whole entry): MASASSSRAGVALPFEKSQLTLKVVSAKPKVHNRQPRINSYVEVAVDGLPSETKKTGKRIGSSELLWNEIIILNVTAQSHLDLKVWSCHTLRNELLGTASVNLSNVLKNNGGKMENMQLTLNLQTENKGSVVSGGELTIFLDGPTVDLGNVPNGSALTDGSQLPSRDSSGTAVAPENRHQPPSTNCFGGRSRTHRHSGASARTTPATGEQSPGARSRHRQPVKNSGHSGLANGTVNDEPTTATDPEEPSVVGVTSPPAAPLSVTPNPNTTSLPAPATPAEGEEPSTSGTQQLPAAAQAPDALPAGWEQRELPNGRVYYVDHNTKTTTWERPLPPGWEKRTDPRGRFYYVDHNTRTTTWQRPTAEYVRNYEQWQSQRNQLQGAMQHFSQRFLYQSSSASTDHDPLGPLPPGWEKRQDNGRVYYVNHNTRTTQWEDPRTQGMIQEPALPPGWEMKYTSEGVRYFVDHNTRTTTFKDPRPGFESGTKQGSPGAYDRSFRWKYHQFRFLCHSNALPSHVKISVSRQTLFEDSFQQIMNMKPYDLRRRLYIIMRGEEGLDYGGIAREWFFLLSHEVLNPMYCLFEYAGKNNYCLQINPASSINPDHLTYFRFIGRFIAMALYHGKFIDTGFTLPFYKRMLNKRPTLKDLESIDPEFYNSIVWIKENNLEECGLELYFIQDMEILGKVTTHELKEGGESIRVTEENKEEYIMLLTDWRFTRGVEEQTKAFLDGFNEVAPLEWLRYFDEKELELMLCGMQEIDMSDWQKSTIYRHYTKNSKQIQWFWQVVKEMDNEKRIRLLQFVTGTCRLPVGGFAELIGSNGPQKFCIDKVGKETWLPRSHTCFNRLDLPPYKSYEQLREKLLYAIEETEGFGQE
Method: as §1, §2

[3] = system: WWP1 HECT domain; design: method as in doi:10.1016/j.phytol.2023.01.002; conditions: thermal shift analysis; cited from earlier work

Chain of WWP1 (Q9H0M0 546-922 limits assumed): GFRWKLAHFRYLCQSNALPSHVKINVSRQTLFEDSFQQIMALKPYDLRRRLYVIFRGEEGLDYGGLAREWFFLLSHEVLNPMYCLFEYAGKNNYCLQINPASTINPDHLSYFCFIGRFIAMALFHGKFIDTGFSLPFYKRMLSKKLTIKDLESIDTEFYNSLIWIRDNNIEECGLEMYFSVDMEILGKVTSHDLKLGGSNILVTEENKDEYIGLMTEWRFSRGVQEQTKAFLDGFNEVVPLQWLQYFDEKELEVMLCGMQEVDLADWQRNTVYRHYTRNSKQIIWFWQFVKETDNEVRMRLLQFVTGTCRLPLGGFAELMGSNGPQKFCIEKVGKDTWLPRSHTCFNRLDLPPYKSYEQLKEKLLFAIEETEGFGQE

STD intensities, WWP1-I3C complex [1]: ~30% | STD intensities, WWP2-I3C complex (in words, compared with WWP1) [2]: much lower
Compound: OCc1c[nH]c2ccccc12 [Compound I3C, Indole-3-carbinol, reference compound]
shift in Tm [3]: 3.8 °C
